These are literature values, as cited in patent US20220235022A1 (priority 2019, published 2022).

Structures are written as SMILES.

For data set [1] the following is noted: conjugate acid of the base, approximate values.
The conditions of data set [2]: compared with Δ^9-THC; reported.

As for `Cc1cccc(C)n1` [2,6-dimethylpyridine], the “pKa (conjugate acid in DMSO)” value in data set [1] was 4.46. In the case of `CCCCCc1cc(O)c2c(c1)OC(C)(C)[C@@H]1CC=C(C)C[C@@H]21` [Δ^8-THC, Δ^8-tetrahydrocannabinol], the “less potent in terms of psychoactivity” value in data set [2] was “approximately 50%”.
